Results: patent publication US20100029542A1, “PROTEIN STERILISATION BY RADIATION AND ADDITION OF A STABILISING COMPOSITION” (priority 2006, published 2010)
Like-named read-outs stand apart in the source and are kept apart here.

Key:
glucose oxidase = molecular target: T1, glucose oxidase (Aspergillus niger, UniProt P13006); experiment: Activity recovery of glucose oxidase in dry formulations following gamma irradiation; format: physicochemical; conditions: glucose oxidase 350 μg mL^−1 prior to drying, dry, 25-40 kGy
T1 construct: purchased Biocatalysts G575P
T1 sequence (P13006 17-605): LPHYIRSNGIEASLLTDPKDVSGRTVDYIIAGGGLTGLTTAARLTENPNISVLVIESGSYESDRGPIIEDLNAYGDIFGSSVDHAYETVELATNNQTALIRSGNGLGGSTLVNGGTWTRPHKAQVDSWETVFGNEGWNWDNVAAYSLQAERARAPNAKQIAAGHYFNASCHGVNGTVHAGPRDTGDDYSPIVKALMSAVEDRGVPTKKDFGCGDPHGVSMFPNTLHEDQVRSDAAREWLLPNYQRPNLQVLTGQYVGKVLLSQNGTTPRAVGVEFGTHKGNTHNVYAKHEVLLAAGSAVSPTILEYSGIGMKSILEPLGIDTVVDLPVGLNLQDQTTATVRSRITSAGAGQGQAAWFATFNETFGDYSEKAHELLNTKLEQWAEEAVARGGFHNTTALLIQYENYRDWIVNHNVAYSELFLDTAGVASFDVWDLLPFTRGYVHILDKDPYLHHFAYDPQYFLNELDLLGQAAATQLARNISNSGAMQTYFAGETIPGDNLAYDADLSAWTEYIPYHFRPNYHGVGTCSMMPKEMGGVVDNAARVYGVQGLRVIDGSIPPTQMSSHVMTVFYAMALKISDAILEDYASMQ
Description: (§1) In each example, an aqueous solution of a protein was prepared with selected additives in an Eppendorf tube or in a glass vial. Water was removed from the formulation by drying under a stream of nitrogen at 30° C. and subsequent incubation at atmospheric pressure in the presence of a dessicant. The Eppendorf tubes or the glass vials were sealed and delivered to an industrial sterilisation service for gamma irradiation, with a dose range typical for sterile medical products. The gamma-irradiated samples were reconstituted on their return and analysed for protein activity or structural integrity. The results were compared with those achieved using control (i.e. non-irradiated) samples.
(§2) The dry samples (approx. 20 μg in an Eppendorf tube) were gamma-irradiated by an industry-standard commercial sterilising service provided by Isotron PLC (Swindon, Wilts, UK), using a Cobalt 60 gamma source at ambient temperature. The radiation dose was in the range of 25-40 kGy.
The original solutions (i.e. solutions prior to drying) contained 350 μg mL^−1 of glucose oxidase and typically the total of 100 mM of protective compounds (i.e. 100 mM in case of a single compound, 50 mM+50 mM in case of two compounds, 33.3 mM+33.3 mM+33.3 mM in the case of three compounds etc.). The solutions were dried and gamma irradiated. Following the gamma irradiation, the samples, both pre- and post-gamma irradiated, were assayed for glucose oxidase activity. This was performed according to the following procedure:
Water was added to the sample to achieve 350 μg mL^−1 of glucose oxidase. 50 μL of the solution was added to 50 mL of deionised water. The following solutions were then added: • 10 mL of reagent mix (5 parts of 0.1 M sodium phosphate, pH 6+4 parts 2% w/w starch+1 part of 1 mg/mL lactoperoxidase enzyme); • 5 mL of 100 mM potassium iodide; and • 5 mL of 20% w/w glucose solution.
These were mixed together quickly. Time=0 was counted from the addition of the glucose. After 5 min, 1 ml of 5 M aq. hydrochloric acid was added to stop the reaction. The absorbance was then read at 630 nm using a Unicam UV-visible spectrophotometer (Type: Helios gamma). If the colour intensity was too great to allow an accurate reading, the sample was diluted with a defined volume of deionised water to bring the colour back on scale. The results were expressed as percentage recovery, by reference to the absorbance measured in the pre-gamma irradiation samples.

Sandostatin = experiment: Recovery of structural integrity of Sandostatin in dry formulations following gamma irradiation (HPLC); format: physicochemical; conditions: structural integrity by HPLC, excipient:Sandostatin weight ratio 10:1, 25-40 kGy
Description: as §1, §2
Mobile phase A was 0.1 M triethylamine adjusted to pH 2.3 with phosphoric acid. Mobile phase B was acetonitrile. The mobile phases were filtered prior to their use. The following linear gradient was used: time 0: 90% A+10% B; time 35 min: 60% A+40% B. The liquid chromatograph (Agilent 1100 series) was equipped with a 214 nm detector, guard column and a 4.6×150 mm C18 column with a granulometry of 5 μm and a porosity of 30 nm, maintained at ambient temperature. The flow rate was maintained at 1.0 mL min^−1. Injection volume was 50 μL (typically sandostatin at 200 μg mL^−1). Results were expressed as % of main peak area (i.e. area of the peak corresponding to intact sandostatin measured in the gamma irradiated sample with respect to that measured in non-irradiated sample of identical composition). A chromatogram of a standard solution of sandostatin was recorded after every 12 samples to ensure that no drift in the position of the major peak had occurred. The control measurements ruled out any ambiguity in interpreting the chromatograms.

catalase = molecular target: T2, catalase (Bos taurus, UniProt P00432); experiment: Activity recovery of catalase in dry formulations following gamma irradiation; format: physicochemical, bovine; conditions: Table 10, superoxide scavengers; catalase 100 μg mL^−1 prior to drying; dry; 25-40 kGy
T2 construct: Catalase (from bovine liver, Sigma C9322, 2380 U /mg solid); purchased Sigma C9322; host or cells: bovine liver
T2 sequence (P00432 2-527 limits assumed): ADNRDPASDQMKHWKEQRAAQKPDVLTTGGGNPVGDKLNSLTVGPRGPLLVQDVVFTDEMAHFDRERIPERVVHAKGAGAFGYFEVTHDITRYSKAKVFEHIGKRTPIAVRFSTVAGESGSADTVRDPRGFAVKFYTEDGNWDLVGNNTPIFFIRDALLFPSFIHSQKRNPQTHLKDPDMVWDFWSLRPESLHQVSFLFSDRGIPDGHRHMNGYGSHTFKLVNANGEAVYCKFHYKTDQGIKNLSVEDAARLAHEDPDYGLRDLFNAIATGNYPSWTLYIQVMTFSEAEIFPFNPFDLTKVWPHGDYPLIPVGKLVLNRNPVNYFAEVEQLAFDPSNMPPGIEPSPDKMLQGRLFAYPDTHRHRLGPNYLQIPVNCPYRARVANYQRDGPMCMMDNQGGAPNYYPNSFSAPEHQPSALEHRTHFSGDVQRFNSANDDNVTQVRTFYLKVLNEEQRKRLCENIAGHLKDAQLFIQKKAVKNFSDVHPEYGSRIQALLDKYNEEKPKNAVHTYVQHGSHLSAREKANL
Description: as §1, §2
The original solutions (i.e. solutions prior to drying) contained 100 μg mL^−1 of catalase and typically the total of 100 mM of protective compounds (i.e. 100 mM in case of a single compound, 50 mM+50 mM in case of two compounds, 33.3 mM+33.3 mM+33.3 mM in the case of three compounds etc.). The solutions were dried and gamma irradiated. Following the gamma irradiation, the samples, both pre- and post-gamma irradiated, were assayed for […] activity. This was performed according to the following procedure:
Water was added to the sample to achieve 100 μg mL^−1 of catalase. 100 μL of the solution was added to a mixture of 18 mL of PBS and 2 mL of hydrogen peroxide (30 mM in water) in a 125 mL polypropylene pot and mixed. The resulting mixture was incubated at room temperature precisely for 30 min. In the meantime, the following reagents were mixed in a plastic cuvette for spectrophotometric measurements: • 2.73 mL of citrate/phosphate buffer (0.1 M, pH 5.0) • 100 μL of tetramethylbenzidine (TMB) (3 mg/mL, dissolved in dimethyl sulphoxide (DMSO)) • 100 μL of lactoperoxidase
Following the 30 min incubation period, 70 μL of the catalase containing mixture was added to the cuvette and absorbance was read in approximately 30 s. The results were expressed as percentage recovery, by reference to the absorbance measured in the fresh samples (i.e. prior to incubation at increased temperature).

[1] = cited from earlier work

Structure (SMILES): CSCC[C@H](N)C(=O)O [Methionine]
- Enzyme activity remaining after gamma-irradiation (glucose oxidase; Table 3, prior-art antioxidants, ambient temperature, vs non-irradiated): 61.3%
- Enzyme activity remaining after gamma-irradiation (glucose oxidase; Table 5, singlet oxygen scavengers, ambient temperature): 61.3%
- Enzyme activity remaining after gamma-irradiation (glucose oxidase; Table 9, superoxide scavengers): 61.3%
- Enzyme activity remaining after gamma-irradiation (Sandostatin; Table 8, singlet oxygen scavengers): 91.1%
- Enzyme activity remaining after gamma-irradiation (Sandostatin; Table 12, superoxide scavengers): 91.1%
- Enzyme activity remaining after gamma-irradiation (catalase): 44.3%
- Rate of reaction with singlet oxygen ([1]; Table 5): 1.3e+07 M⁻¹ s⁻¹
- Rate of reaction with singlet oxygen ([1]; Table 7): 1.3e+07 M⁻¹ s⁻¹
- Rate of reaction with singlet oxygen ([1]; Table 8): 1.3e+07 M⁻¹ s⁻¹
